Test results as given in US20130178479A1, “PHARMACEUTICAL COMBINATIONS” (NOVARTIS AG, priority 2010, published 2013).
Where two headings read alike, the source gives them in different places.

What was measured:
[1] = test system: KMS-11 human Multiple Myeloma cancer cells; experiment: Cell proliferation assay (CellTiter-Glo) in KMS-11; type: cell-based; settings: for IC50: Homo sapiens
Experimental: (§1) Celt Proliferation Assay: Cell viability was determined by measuring cellular ATP content using the CellTiter-Glo® Luminescent Cell Viability Assay (Promega #G7573) according to manufacturer's protocol. Briefly, 1500-50000 cells were plated on either 384 or 96 well plates in 30 μl (384 well) or 100 μl (96 well) growth media, cells were: allowed to attach overnight and followed by 72 hrs of incubation with various concentration of drugs or drug combinations (10 μl per well in 384 well plates), at the end of the drug treatment, 30 μl of the CellTiter-Glo regent were added to each well (384 well plates) to lyse the cell, and luminescence signals were recorded on a Envision plate reader.
(§2) Method for calculating the effect of the Combination: To evaluate the everolimus and Compound A combination effect in a non-bias way and to identify synergistic effect at all possible concentrations, the combination studies were conducted with a “dose matrix”, where a combination is tested in all possible permutations of serially-diluted everolimus and Compound A single agent doses, in all combination assays, compounds were applied simultaneously. Single agent dose responding curves, IC50, IC90, and the Synergy are all analyzed using Chalice software (CombinatoRx, Cambridge, Mass.). Synergy was calculated by comparing a combination's response to those of its single agents, against the drug-with-itself dose-additive reference model. Deviations from dose additivity can be assessed visually on an Isobologram or numerically With a Combination Index. Excess inhibition compare to additivity can also be plotted as a full dose-matrix chart to capture where the synergies occur. To quantify the overall strength of combination effects, a volume score VHSA=ΣXYInfXInfY(Idata−IHSA) is also calculated between the data and the highest-single-agent surface, normalized for single agent dilution factors fX,fY[ref].
The cells were plated, at 50000 cells/well in 96 well plates in triplicates, and treated with compound for 72 hrs prior to the measurement (FIG. 11). The following “dose matrix”, everolimus; 8 dose, 3×, 500 nM to 0.23 nM, Compound A: 8 dose, 2×, 1 μM to 8 nM, was applied.

[2] = test system: AN3 CA human endometrial cancer cells; experiment: Cell proliferation assay (CellTiter-Glo) in AN3 CA; type: cell-based
Experimental: as §1, §2
The cells were plated at 1500 cells/well in 384 well plates in quadruplicates, and treated with compound for 72 hrs before the measurement (FIG. 9). The following “dose matrix”, everolimus: 11 dose, 4×, 500 nM to 0.5 pM, Compound A: 9 dose, 4×, 1 μM to […], was applied.

[3] = test system: GA-10 human Non-Hodgkin's Lymphoma cancer cells; experiment: Cell proliferation assay (CellTiter-Glo) in GA-10; type: cell-based
Experimental: as §1, §2
The cells were plated at 50000 cells/well in 96 well plates in triplicate, and treated with compound for 72 hrs prior to the measurement (FIG. 10). The following “dose matrix”, everolimus: 8 dose, 3×, 500 nM to 0.23 nM, Compound A: 8 dose, 2×, 1 μM to 8 nM, was applied.

[4] = test system: pS6 S240/244 in NCI-H23 cells; experiment: High content pS6 S240/244 assay in NCI-H23 cells; type: cell-based; settings: Homo sapiens, single agent, NCI-H23, 18 hrs; for IC50: read-out: IC50, inhibition of pS6 signal; for IC90: read-out: IC90, inhibition of pS6 signal
Experimental: (§3) Automated imaging assay (or High-Content assay) for pS6 S240/244 and p4EBP1 T37/46: 2-4×10^3 cells were seeded in clear-bottom 384-well black plates (Greiner #781091) in 30 μl per well growth media 24 hours prior to treatment Compounds were added to the cell in 10 μl growth media and incubated overnight; the cells were then fixed by addition of 10 μl per well Mirsky's fixative (National Diagnostics #HS-102) for 1 hour, washed seven times with 30 μl/well TBS buffer using a BioTek plate washer, and blocked with 100 μl/well blocking buffer (TBS with 0.1% BSA and 0.1% Triton X-100). The anti-Ser 240/244 -RPS6 antibody (CST #4838, 1:150 dilution) or anti-Thr 37/46-p4EBP1 antibody (CST #2855, 1:150 dilution) were then incubated overnight at 4° C. After seven times wash with TBS, the cells were stained with Cy5-conjugated goat-anti-rabbit IgG 2nd antibody (Millipore #AP187S, 1:150 dilution) and DNA staining dye Neediest 33342 for 1.5 hours. The phospho-S6 and phospho-4EBP1 signals were-imaged using InCell 1000 Analyzer (BN_staining—10×protocol) at 10× magnification, 3 fields per well after seven times wash with TBS. For Hoechst 33342 signal; the excitation and emission wave lengths are 360 nm (D360—40× filter) and […] (HQ460—40M filter), respectively, and for Cy5, 620 nm (HQ620—60× filter) for both the excitation and emission wave lengths. Analysis of the images was done using the InCell Investigator software.
as §2
The experiment setup is identical to the p4EBP1 assay used for the NCI-H23 cell model (FIGS. 3-4). […]

[5] = test system: MFE296 human endometrial cancer cells; experiment: Cell proliferation assay (CellTiter-Glo) in MFE296; type: cell-based; settings: for Amax: single agent
Experimental: as §1, §2
The experiment setup is identical to the p4EBP1 assay as described above for the MFE296 cancer cell model. (FIG. 8). And the same “dose matrix” (everolimus: 11 dose, 4', 500 nM to 0.5 pM, Compound A; 9 dose, 4×, 1 μM to 16 nM) was applied.

[6] = test system: p4EBP1 T37/46 in NCI-H23 cells; experiment: High content p4EBP1 T37/46 assay in NCI-H23 cells; type: cell-based, human
Experimental: as §3, §2
The cells were plated at 3000 cells per well in 384 well plates in quadruplicates, and treated with compound for 18 hrs before the measurement (FIGS. 1-2).

[7] = test system: p4EBP1 T37/46 in MFE296 cells; experiment: High content p4EBP1 T37/46 assay in MFE296 cells; type: cell-based, human; settings: for IC50 / IC90: Homo sapiens, MFE-296
Experimental: as §3, §2
p4EBP1 signal. […] The cells were plated at 4000 cells/well in 384 well plates in duplicates, and treated with compound for 18 hrs before the measurement (FIG. 7).

[8] = with trace amount (picomolar) of everolimus

Cn1c(=O)n(-c2ccc(C(C)(C)C#N)cc2)c2c3cc(-c4cnc5ccccc5c4)ccc3ncc21 [Compound A, 2-methyl-2-[4-(3-methyl-2-oxo-8-quinolin-3-yl-2,3-dihydro-imidazo[4,5-c]quinolin-1-yl)-phenyl]-propionitrile] was tested, and the “full effective dose amount of Compound A” value ([1]; Compound A alone, KMS-11) was > 125 nM, the IC50 ([1]; concomitant everolimus, KMS-11, read-out: IC50 for Compound A, cell growth) was 0.016 µM and the IC50 ([1]; single agent, KMS-11, 72 hrs, read-out: IC50, inhibition of cell growth) was ~0.08 µM. For the same compound, the Amax ([1]; single agent, KMS-11, 72 hrs) was 0.7, the “full effective dose amount of Compound A” value ([1]; with trace amount (sub-nanomolar) of everolimus, KMS-11) was 16 to 82 nM and the “full effective dose amount of Compound A” value ([2]; Compound A alone) was > 64 nM. The IC50 ([2]; Homo sapiens, single agent, 72 hrs, read-out: IC50, inhibition of cell growth) was 0.005 µM, the Amax ([2]; single agent, 72 hrs) was 0.69 and the “full effective dose amount of Compound A” value [2, 8] was “close to nanomolar or sub-nanomolar range”. For the same compound, the “full effective dose amount of Compound A” value ([3]; Compound A alone, GA-10) was > 250 nM, the IC90 ([3]; Homo sapiens, GA-10, 72 h, single agent, GA-10, 72 hrs, read-out: IC90, inhibition of cell growth) was 0.25 µM and the IC90 ([3]; Homo sapiens, GA-10, concomitant everolimus, GA-10, read-out: IC90 for Compound A, cell growth) was 0.016 µM. For the same compound, the IC50 ([3]; Homo sapiens, single agent, GA-10, 72 hrs, read-out: IC50, inhibition of cell growth) was ~0.025 µM, the Amax ([3]; single agent, GA-10, 72 hrs) was 1 and the IC90 ([3]; single agent, GA-10, 72 hrs, read-out: IC90, inhibition of cell growth) was ~0.3 µM. The “full effective dose amount of Compound A” value ([3]; with trace amount (sub-nanomolar) of everolimus, GA-10) was 16 to 62 nM, the IC50 [4] was 0.005 µM and the IC90 [4] was ~0.02 µM. The “full effective dose of Compound A” value ([5]; Compound A alone) was 250 nM, the IC50 ([5]; Homo sapiens, MFE-296, single agent, read-out: IC50, inhibition of cell growth) was 0.078 µM and the Amax [5] was 0.79. The “full effective dose of Compound A” value [5, 8] was “close to sub-nanomolar range”, the IC90 ([6]; Homo sapiens, in combination with 5 nM everolimus, NCI-H23, read-out: IC90 for Compound A, p4EBP1 signal) was 0.005 µM and the IC50 ([6]; Homo sapiens, single agent, NCI-H23, 18 hrs, read-out: IC50, reduction of p4EBP1 signal) was 0.01 µM. The IC90 ([6]; Homo sapiens, single agent, NCI-H23, 18 hrs, read-out: IC90, reduction of p4EBP1 signal) was 0.08 µM, the “concentration at which p4EBP1 signal reduction plateaued (complete inhibition)” value ([6]; single agent, NCI-H23) was ≥ 167 nM and the “reduction of IC90 for Compound A, p4EBP1 signal” value ([6]; with 5 nM everolimus vs Compound A alone) was 16 fold. For the same compound, the IC50 ([7]; in presence of trace amount of everolimus, MFE296, read-out: IC50 for Compound A, p4EBP1 signal) was 0.00024 µM, the IC90 ([7]; in presence of trace amount of everolimus, MFE296, read-out: IC90 for Compound A, p4EBP1 signal) was 0.004 µM and the IC50 ([7]; single agent, MFE296, 18 hrs, read-out: IC50, reduction of p4EBP1 signal) was 0.016 µM. It also gave an IC90 ([7]; single agent, MFE296, 18 hrs, read-out: IC90, reduction of p4EBP1 signal) of ~0.1 µM.

CO[C@H]1C[C@@H]2CC[C@@H](C)[C@@](O)(O2)C(=O)C(=O)N2CCCC[C@H]2C(=O)O[C@H]([C@H](C)C[C@@H]2CC[C@@H](OCCO)[C@H](OC)C2)CC(=O)[C@H](C)/C=C(\C)[C@@H](O)[C@@H](OC)C(=O)[C@H](C)C[C@H](C)/C=C/C=C/C=C/1C [everolimus, 40-O-(2-hydroxyethyl)-rapamycin, reference compound] gave an Amax ([1]; single agent, KMS-11, 72 hrs) of 0.28, an Amax ([2]; single agent, 72 hrs) of 0.3 and an Amax ([3]; single agent, GA-10, 72 hrs) of 0.3. The IC50 [4] was < 0.005 µM, the IC90 [4] was ~0.01 µM and the Amax [5] was 0.6. For the same compound, the p4EBP1 signal reduction ([6]; single agent, all concentrations tested 5 nM-1.2 μM, NCI-H23) was “approximately 30%” and the p4EBP1 signal reduction ([7]; single agent, all concentrations tested 0.5 pM-500 nM, MFE296) was “approximately 20%”.
